# Patent publication US8906925B2, “Pyrido[4,3-B]indoles containing rigid moieties” (Medivation Technologies, Inc., priority 2008, dated 2014)
# How the values were obtained:
# [1] = target: human dopamine D2L receptor (Homo sapiens, UniProt P14416); assay: Dopamine D2L radioligand binding ([3H]Spiperone); conditions: compound at 1 μM; […] [3H]Spiperone; read-out: Inhibition of ligand binding, Dopamine D2L (percent inhibition of specific binding)
# Excerpt: Non-specific binding was estimated in the presence of […] Haloperidol. Receptor proteins were filtered and washed, the filters were then counted to determine [^3H]Spiperone specifically bound. […] Biochemical assay results are presented as the percent inhibition of specific binding in Table 9.
# [2] = target: histamine receptor H1 (Homo sapiens, UniProt P35367); assay: Histamine H1 radioligand binding ([3H]Pyrilamine); conditions: read-out: Histamine Binding (1 μM) H1, percent inhibition of specific binding, 1 μM
# Chain of histamine receptor H1 (P35367 whole entry): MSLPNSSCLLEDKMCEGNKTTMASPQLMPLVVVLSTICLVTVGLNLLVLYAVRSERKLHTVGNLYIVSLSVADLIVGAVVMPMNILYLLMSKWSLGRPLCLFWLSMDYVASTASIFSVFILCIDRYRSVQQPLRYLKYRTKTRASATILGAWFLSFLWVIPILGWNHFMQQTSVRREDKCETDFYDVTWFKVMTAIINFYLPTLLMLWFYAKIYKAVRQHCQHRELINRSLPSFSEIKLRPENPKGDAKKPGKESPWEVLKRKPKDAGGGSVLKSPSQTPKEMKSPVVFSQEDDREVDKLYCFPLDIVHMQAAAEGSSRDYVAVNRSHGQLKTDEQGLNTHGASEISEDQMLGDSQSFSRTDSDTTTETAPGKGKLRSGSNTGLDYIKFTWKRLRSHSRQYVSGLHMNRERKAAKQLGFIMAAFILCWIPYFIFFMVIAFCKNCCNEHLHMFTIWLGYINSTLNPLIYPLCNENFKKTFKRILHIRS
# Method: To evaluate in radioligand binding assays the activity of compounds of the invention, human recombinant histamine H1 receptor expressed in Chinese hamster ovary (CHO) cells (De Backer, M. D. et al., Biochem. Biophys. Res. Comm. 197(3):1601, 1993) in a modified Tris-HCl buffer (50 mM Tris-HCl, pH 7.4, 2 mM MgCl2, 100 mM NaCl, 250 mM Sucrose) was used. Compounds of the invention were incubated with 1.2 nM [^3H]Pyrilamine for 180 min. at 25° C. Non-specific binding was estimated in the presence of 1 μM pyrilamine. Receptor proteins were filtered and washed, the filters were then counted to determine [^3H]Pyrilamine specifically bound. Compounds were screened at 1 μM or lower, using 1% DMSO as vehicle. Biochemical assay results are presented as the percent inhibition of specific binding in Table 8.
# Chain of human dopamine D2L receptor (P14416 whole entry): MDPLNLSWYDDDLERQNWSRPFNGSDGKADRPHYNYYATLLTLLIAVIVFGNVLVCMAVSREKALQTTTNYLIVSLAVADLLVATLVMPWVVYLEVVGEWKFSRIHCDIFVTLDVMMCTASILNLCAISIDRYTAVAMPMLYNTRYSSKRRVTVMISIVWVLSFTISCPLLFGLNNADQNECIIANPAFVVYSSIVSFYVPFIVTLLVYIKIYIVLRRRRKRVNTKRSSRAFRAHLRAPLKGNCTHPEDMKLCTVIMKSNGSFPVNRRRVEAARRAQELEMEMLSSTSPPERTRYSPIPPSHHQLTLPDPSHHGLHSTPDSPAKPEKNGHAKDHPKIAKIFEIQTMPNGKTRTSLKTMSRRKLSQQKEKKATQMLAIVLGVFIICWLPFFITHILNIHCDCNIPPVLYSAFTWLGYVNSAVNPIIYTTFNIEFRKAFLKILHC
SMILES,inhibition at 1 µM [1] [%],inhibition at 1 µM [2] [%]
"C/C=C(/Cn1c2c(c3cc(Cl)ccc31)CN(C)CC2)c1ccncc1 [Compound No. 362, (E)-8-chloro-2-methyl-5-(2-(pyridin-4-yl)but-2-enyl)-2,3,4,5-tetrahydro-1H-pyrido[4,3-b]indole]",79,98
"C=C(Cn1c2c(c3cccc(F)c31)CN(C)CC2)c1ccncc1 [Compound No. 363, 6-fluoro-2-methyl-5-(2-(pyridin-4-yl)allyl)-2,3,4,5-tetrahydro-1H-pyrido[4,3-b]indole]",53,62
"C=C(Cn1c2c(c3cc(C)ccc31)CN(C)CC2)c1cnccn1 [Compound No. 364, 2,8-dimethyl-5-(2-(pyrazin-2-yl)allyl)-2,3,4,5-tetrahydro-1H-pyrido[4,3-b]indole]",27,95
"CN1CCc2c(c3cc(Cl)ccc3n2/C=C(\c2ccccc2)c2ccncc2)C1 [Compound No. 460, (E)-8-chloro-2-methyl-5-(2-phenyl-2-(pyridin-4-yl)vinyl)-2,3,4,5-tetrahydro-1H-pyrido[4,3-b]indole]",67,17
"CN1CCc2c(c3cc(Cl)ccc3n2/C=C(/c2ccccc2)c2ccncc2)C1 [Compound No. 461, (Z)-8-chloro-2-methyl-5-(2-phenyl-2-(pyridin-4-yl)vinyl)-2,3,4,5-tetrahydro-1H-pyrido[4,3-b]indole]",78,31
"CC(O)(Cn1c2c(c3cc(Cl)ccc31)CN(CCCC(=O)c1ccc(F)cc1)CC2)c1ccncc1 (stereo not drawn) [Compound No. 464, 4-(8-chloro-5-(2-hydroxy-2-(pyridin-4-yl)propyl)-3,4-dihydro-1H-pyrido[4,3-b]indol-2(5H)-yl)-1-(4-fluorophenyl)butan-1-one]",93,66
"Cc1ccc2c(c1)c1c(n2CC(O)(c2ccccc2)c2ccccc2)CCN(C)C1 [Compound No. 465, 2-(2,8-dimethyl-3,4-dihydro-1H-pyrido[4,3-b]indol-5(2H)-yl)-1,1-diphenylethanol]",21,-14
"CN1CCc2c(c3cc(Cl)ccc3n2CC(O)(c2ccccc2)c2ccccc2)C1 [Compound No. 466, 2-(8-chloro-2-methyl-3,4-dihydro-1H-pyrido[4,3-b]indol-5(2H)-yl)-1,1-diphenylethanol]",54,10
"CN1CCc2c(c3cc(Cl)ccc3n2C#Cc2ccc(C(F)(F)F)nc2)C1 [Compound No. 486, 8-chloro-2-methyl-5-((6-(trifluoromethyl)pyridin-3-yl)ethynyl)-2,3,4,5-tetrahydro-1H-pyrido[4,3-b]indole]",14,22
"CCCc1ccc(C#Cn2c3c(c4cc(Cl)ccc42)CN(C)CC3)cn1 [Compound No. 487, 8-chloro-2-methyl-5-((6-propylpyridin-3-yl)ethynyl)-2,3,4,5-tetrahydro-1H-pyrido[4,3-b]indole]",17,75
"Cc1ccc2c(c1)c1c(n2C#Cc2ccsc2)CCN(C)C1 [Compound No. 491, 2,8-dimethyl-5-(thiophen-3-ylethynyl)-2,3,4,5-tetrahydro-1H-pyrido[4,3-b]indole]",82,52

# More lines, now with the values ahead:
inhibition at 1 µM [1] [%],inhibition at 1 µM [2] [%],SMILES
51,96,"C/C=C(/Cn1c2c(c3cc(C)ccc31)CN(C)CC2)c1ccncc1 [Compound No. 361, (E)-2,8-dimethyl-5-(2-(pyridin-4-yl)but-2-enyl)-2,3,4,5-tetrahydro-1H-pyrido[4,3-b]indole]"
15,56,"C/C(=C/n1c2c(c3cc(C)ccc31)CN(C)CC2)c1cccc(C(=O)N(C)C)c1 [Compound No. 458, (Z)-3-(1-(2,8-dimethyl-3,4-dihydro-1H-pyrido[4,3-b]indol-5(2H)-yl)prop-1-en-2-yl)-N,N-dimethylbenzamide]"
71,53,"CSc1ccc(/C(C)=C/n2c3c(c4cc(C)ccc42)CN(C)CC3)cc1 [Compound No. 459, (E)-2,8-dimethyl-5-(2-(4-(methylthio)phenyl)prop-1-enyl)-2,3,4,5-tetrahydro-1H-pyrido[4,3-b]indole]"
76,32,"C/C(=C\n1c2c(c3cc(C)ccc31)CN(C)CC2)c1ccc(S(C)(=O)=O)cc1 [Compound No. 462, (E)-2,8-dimethyl-5-(2-(4-(methylsulfonyl)phenyl)prop-1-enyl)-2,3,4,5-tetrahydro-1H-pyrido[4,3-b]indole]"
7,54,"Cc1ccc2c(c1)c1c(n2C(C)(C)C(O)c2ccccc2)CCN(C)C1 (stereo not drawn) [Compound No. 467, 2-(2,8-dimethyl-3,4-dihydro-1H-pyrido[4,3-b]indol-5(2H)-yl)-2-methyl-1-phenylpropan-1-ol]"
12,82,"Cc1ccc2c(c1)c1c(n2C(C)C(O)c2ccccc2)CCN(C)C1 (stereo not drawn) [Compound No. 468, 2-(2,8-dimethyl-3,4-dihydro-1H-pyrido[4,3-b]indol-5(2H)-yl)-1-phenylpropan-1-ol]"
2,2,"C/C(=C\n1c2c(c3cc(C)ccc31)CNCC2)c1cc[n+](C)cc1 [Compound No. 471, (E)-1-methyl-4-(1-(8-methyl-3,4-dihydro-1H-pyrido[4,3-b]indol-5(2H)-yl)prop-1-en-2-yl)pyridinium]"
53,21,"CNC(=O)c1cccc(/C(C)=C/n2c3c(c4cc(C)ccc42)CN(C)CC3)c1 [Compound No. 472, (E)-3-(1-(2,8-dimethyl-3,4-dihydro-1H-pyrido[4,3-b]indol-5(2H)-yl)prop-1-en-2-yl)-N-methylbenzamide]"
59,35,"C/C(=C\n1c2c(c3cc(C)ccc31)CN(C)CC2)c1cccc(S(C)(=O)=O)c1 [Compound No. 473, (E)-2,8-dimethyl-5-(2-(3-(methylsulfonyl)phenyl)prop-1-enyl)-2,3,4,5-tetrahydro-1H-pyrido[4,3-b]indole]"
53,98,"CSc1cccc(/C(C)=C/n2c3c(c4cc(C)ccc42)CN(C)CC3)c1 [Compound No. 474, (E)-2,8-dimethyl-5-(2-(3-(methylthio)phenyl)prop-1-enyl)-2,3,4,5-tetrahydro-1H-pyrido[4,3-b]indole]"
19,9,"CNC(=O)c1ccc(C#Cn2c3c(c4cc(C)ccc42)CN(C)CC3)cc1F [Compound No. 488, 4-((2,8-dimethyl-3,4-dihydro-1H-pyrido[4,3-b]indol-5(2H)-yl)ethynyl)-2-fluoro-N-methylbenzamide]"
9,13,"Cc1ccc2c(c1)c1c(n2C#Cc2cccc(N(C)C)c2)CCN(C)C1 [Compound No. 489, 3-((2,8-dimethyl-3,4-dihydro-1H-pyrido[4,3-b]indol-5(2H)-vyl)ethynyl)-N,N-dimethylaniline]"
74,18,"Cc1ccc2c(c1)c1c(n2C#Cc2ccccc2)CCN(C)C1 [Compound No. 490, 2,8-dimethyl-5-(phenylethynyl)-2,3,4,5-tetrahydro-1H-pyrido[4,3-b]indole]"
